Measured values as given in patent publication US8460669B2, “Compositions and methods for identifying response targets and treating flavivirus infection responses” (Academia Sinica, priority 2005, dated 2013).

Tests used:
[1] = biological target: T1, Dectin-1 (Homo sapiens, UniProt Q9BXN2); test: Sugar competition EIA, Fc.Dectin-1 binding to GLPS-F3; conditions: sugar 1 mg/ml
T1 construct: The extracellular domains of lectin receptors, TREMs and TLTs were cloned by the reverse-transcriptase polymerase chain reaction (RT-PCR); made in house; host or cells: 293-F (FreeStyle 293) cells
T1 sequence (Q9BXN2 66-247 limits assumed): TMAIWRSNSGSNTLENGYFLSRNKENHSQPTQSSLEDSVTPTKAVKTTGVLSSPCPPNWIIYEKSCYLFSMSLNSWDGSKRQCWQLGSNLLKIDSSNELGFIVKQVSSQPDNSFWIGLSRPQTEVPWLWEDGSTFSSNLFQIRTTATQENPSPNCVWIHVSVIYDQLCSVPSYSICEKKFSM
Experimental: The interaction between GLPS-F3 and receptor.Fc was then tested. Unbiotinylated GLPS-F3 was immobilized at 100 ng/well as described above, and 100 μL receptor.Fc fusion protein (1 μg/ml in 2 mM MgCl2/2 mM CaCl2/1% BSA/TBST) was added into each well and incubated for 1 hour at room temperature. After washing with TBST, wells were incubated with peroxidase-conjugated goat anti-human IgG Ab (1:5000 dilution, Jackson ImmunoResearch Laboratories) in blocking buffer at room temperature for 30 min. Wells were incubated with 100 μL TMB substrate for 15 min after TBST washing and read at 450 nm in a Fusion plate reader (Perkin Elmer). The results were normalized with respect to Fc.Dectin-1 binding (Dectin-1 is a known lectin receptor that binds to β-1,3-glucan which is the backbone found in GLPS-F3). FIG. 6B depicts in graphical form the affinity of each receptor for GLPS-F3 relative to Dectin-1. […] There was also weaker but positive GLPS-F3 binding ability (25-50% binding intensity compared to Fc.dectin-1) found in Fc.NKG2D, Fc.MINCLE, Fc.mKCR, DCAL1.Fc, DEC205.Fc, Endo180.Fc and NKp30(NCR3).Fc.
To understand the interaction of GLPS-F3 with specific innate immunity receptors, the polysaccharides mannan and β-glucan and the monosaccharides D-mannose (Man), D-glucose (Glc), N-acetyl-glucosamine (GlcNAc), D-galactose (Gal), N-acetyl-galactosamine (GalNAc), L-fucose (Fuc) and sialic acid, were used in a competition assay. […] The assays were carried out as in Example 9, with the addition of 1 mg/ml of each polysaccharide or monosaccharide.

[2] = biological target: T2, DVLR1/CLEC5A (Homo sapiens, UniProt Q9NY25); test: Sugar competition, biotinylated DV binding to DVLR1/CLEC5A-transfected 293T cells; assay type: cell-based; conditions: flow cytometry
T2 construct: expressed in transfected cells; host or cells: 293T cells
T2 sequence (Q9NY25 1-187 isoform Q9NY25-2): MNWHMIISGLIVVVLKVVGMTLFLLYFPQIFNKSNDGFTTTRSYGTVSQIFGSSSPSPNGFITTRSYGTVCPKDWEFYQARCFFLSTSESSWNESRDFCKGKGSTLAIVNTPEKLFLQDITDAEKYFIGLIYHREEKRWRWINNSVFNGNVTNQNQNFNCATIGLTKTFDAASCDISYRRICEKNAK
Experimental: (§1) In FIG. 16b, complexes of DV (5×10^6 PFU) with receptor.Fc (5 μg) were immunoprecipitated and detected on westerns with mAb to DV envelope (E) protein. […] FIGS. 16d and 16e show sugar competition assays wherein both DC-SIGN (CLEC4L) and DVLR1/CLEC5A increase DV binding to human 293T cells (FIG. 16d), while addition of sugars inhibits biotinylated DV binding to DC-SIGN- (left panel) or DLVR1/CLEC5A- (right panel) transfected 293T cells in a dose-dependent manner as determined by flow cytometry (FIG. 16e). According to FIG. 16e, MFI represents mean fluorescence intensity. Units (U) for monosaccharide (mannose and fucose) and polysaccharide (mannan) are mM and mg/ml, respectively. […] Data are expressed as the mean±s.d. of three independent experiments. Two-tailed, Student's t-tests were performed.
(§2) There are two conserved N-linked glycosylation sites at Asn-67 and Asn-153 of E protein (Pokidysheva, E. et al., Cell 124:485-93 (2006)), and the attached glycans (with terminal fucose and mannose) have been implicated in cellular attachment and viral entry (Modis, Y. et al., J. Virol. 79:1223-1231 (2005)). To investigate the participation of glycans in the association of DVLR1/CLEC5A with DV, virions were incubated with fucose, mannose, or mannan; where the last two sugars are the ligands for DC-SIGN (Mitchell et al., J. Biol. Chem. 276: 28939-28945 ([…])).

[3] = biological target: T3, TLT-2.Fc (Homo sapiens, UniProt Q5T2D2); test: Immunosorbent dot binding assay with TLT-2.Fc; conditions: polysaccharide immobilized on PVDF membrane; receptor.Fc 1 μg/mL
T3 construct: The extracellular domains of lectin receptors, TREMs and TLTs were cloned by the reverse-transcriptase polymerase chain reaction (RT-PCR); made in house; host or cells: 293-F (FreeStyle 293) cells
T3 sequence (Q5T2D2 19-268 limits assumed): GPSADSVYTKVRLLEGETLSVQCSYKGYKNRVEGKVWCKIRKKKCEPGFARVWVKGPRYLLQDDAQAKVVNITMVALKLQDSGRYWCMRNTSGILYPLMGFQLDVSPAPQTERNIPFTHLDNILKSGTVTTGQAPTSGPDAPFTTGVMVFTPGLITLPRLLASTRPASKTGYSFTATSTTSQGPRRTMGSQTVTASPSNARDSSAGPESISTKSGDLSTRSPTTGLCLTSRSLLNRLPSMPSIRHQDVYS

[4] = biological target: T4, Dectin-1.Fc (Homo sapiens, UniProt Q9BXN2); test: Immunosorbent dot binding assay with Dectin-1.Fc
T4 construct: The extracellular domains of lectin receptors, TREMs and TLTs were cloned by the reverse-transcriptase polymerase chain reaction (RT-PCR); made in house; host or cells: 293-F (FreeStyle 293) cells
T4 sequence (Q9BXN2 66-247 limits assumed): T1 sequence (Q9BXN2 66-247 limits assumed)

[5] = biological target: T5, DC-SIGN (Homo sapiens, UniProt Q9NNX6); test: Sugar competition, biotinylated DV binding to DC-SIGN-transfected 293T cells; assay type: cell-based; conditions: flow cytometry
T5 construct: expressed in transfected cells; host or cells: 293T cells
T5 sequence (Q9NNX6 1-404): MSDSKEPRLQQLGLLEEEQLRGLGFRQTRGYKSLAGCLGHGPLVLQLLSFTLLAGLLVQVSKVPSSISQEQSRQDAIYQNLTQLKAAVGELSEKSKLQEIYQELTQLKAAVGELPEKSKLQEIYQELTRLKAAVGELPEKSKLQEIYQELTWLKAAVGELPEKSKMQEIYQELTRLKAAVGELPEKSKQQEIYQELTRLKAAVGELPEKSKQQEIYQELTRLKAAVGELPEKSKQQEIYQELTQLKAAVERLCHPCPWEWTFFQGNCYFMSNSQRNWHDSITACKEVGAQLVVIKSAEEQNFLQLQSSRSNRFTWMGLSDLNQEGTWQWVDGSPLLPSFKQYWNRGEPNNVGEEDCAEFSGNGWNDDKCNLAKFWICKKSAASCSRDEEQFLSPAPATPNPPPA
Experimental: as §1, §2

| Percentage of binding of Dectin-1 Fc fusion to GLPS-F3 relative to binding in absence of sugar competitor [1] | inhibition of interaction between GLPS-F3 and Fc.Dectin-1 [1] | interaction with TLT-2.Fc in dot-binding assay [3] | inhibition of the interaction between Dectin-1.Fc and F3 ([4]; competitor 0.1 μg-1000 μg, or EDTA 10 mM in TBST) | interaction with Dectin-1.Fc in dot-binding assay ([4]; polysaccharide immobilized on PVDF membrane, receptor.Fc 1 μg/mL) | Compound | inhibition of binding of DVLR1/CLEC5A to DV [2] | inhibition of the DC-SIGN-DV interaction [5] |
| --- | --- | --- | --- | --- | --- | --- | --- |
| 92 ± 5.2% | – | – | – | – | C[C@H](O)[C@@H](O)[C@@H](O)[C@H](O)C=O [Fuc, L-fucose] | significantly reduced | – |
| 42 ± 0.3% | 58% | only Dectin-1.Fc can bind | inhibited | can bind | β-1,3-glucan [b-glucan] | – | – |

| Compound | Percentage of binding of Dectin-1 Fc fusion to GLPS-F3 relative to binding in absence of sugar competitor [1] | inhibition of interaction between GLPS-F3 and Fc.Dectin-1 [1] | interaction with TLT-2.Fc in dot-binding assay [3] | inhibition of the interaction between Dectin-1.Fc and F3 ([4]; competitor 0.1 μg-1000 μg, or EDTA 10 mM in TBST) | interaction with Dectin-1.Fc in dot-binding assay ([4]; polysaccharide immobilized on PVDF membrane, receptor.Fc 1 μg/mL) | inhibition of binding of DVLR1/CLEC5A to DV [2] | inhibition of the DC-SIGN-DV interaction [5] |
| --- | --- | --- | --- | --- | --- | --- | --- |
| mannan | 82 ± 0.2% | – | – | – | – | to a lesser extent | dose-dependent inhibition |
